Experimental data published in the RepoRT retention time repository.

Assay: Waters ACQUITY UPLC BEH C18, 100 × 2.1 mm, 1.7 µm, 40 °C, 0.3 to 0.4 mL/min, estimated dead time 0.63 min; A: water + 0.1% formic acid; B: methanol + 0.1% formic acid; gradient (min/%B) 0/0.5 0.1/0.5 10/80 10.1/99.5 12/99.5
Details: stereoisomer not certain

LC retention time [min]	Structure (SMILES)
2.53	O=C(O)CCCC(=O)O
5.07	COc1ccc(CCC(=O)c2c(O)cc(OC3OC(CO)C(O)C(O)C3OC3OC(C)C(O)C(O)C3O)cc2O)cc1O (stereo not drawn)
4.48	CC(CCC1(O)OC2CC3C4CC=C5CC(O)CC(OC6OCC(O)C(O)C6OC6OC(C)C(O)C(O)C6O)C5(C)C4CCC3(C)C2C1C)COC1OC(CO)C(O)C(O)C1O (stereo not drawn)
3.01	Oc1cc(O)c2cc(OC3OCC(O)C(O)C3O)c(-c3ccc(O)c(O)c3)[o+]c2c1 (stereo not drawn)
2.15	CC(C)C(N)C(=O)NC(C(=O)O)C(C)C (stereo not drawn)
5.3	COc1cc2c(=O)c(-c3ccc(O)cc3)coc2cc1O
4.05	O=C(O)C1OC(OC2C(Oc3cc(O)c4c(=O)cc(-c5ccc(O)cc5)oc4c3)OC(C(=O)O)C(O)C2O)C(O)C(O)C1O (stereo not drawn)
4.68	O=C(O)C1OC(Oc2ccc(-c3oc4cc(O)c(C5OC(CO)C(O)C(O)C5O)c(O)c4c(=O)c3C3OC(CO)C(O)C(O)C3O)cc2)C(O)C(O)C1O (stereo not drawn)
4.15	CC1OC(Oc2c(-c3ccc(O)c(O)c3)oc3cc(O)cc(O)c3c2=O)C(OC2OC(CO)C(O)C(O)C2O)C(O)C1O (stereo not drawn)
3.36	O=C(O)CC(=O)OCC1OC(Oc2c(-c3ccc(O)cc3)oc3cc(OC4OC(CO)C(O)C(O)C4O)cc(O)c3c2=O)C(O)C(O)C1O (stereo not drawn)
6.57	COc1ccc(C(C)=O)c(O)c1
2.54	CC(C)CC(NC(=O)CCC(N)C(=O)O)C(=O)O (stereo not drawn)
7.44	CC1(C)CC(O)C2(C)CCC3(C)C(=CCC4C5(C)CCC(OC6OC(C(=O)O)C(O)C(O)C6OC6OCC(O)C(O)C6O)C(C)(CO)C5CCC43C)C2C1 (stereo not drawn)
7.96	CC1=C(O)C(=O)CC(OC2CC(C)(C)CC3C4=CCC5C6(C)CCC(OC7OC(C(=O)O)C(O)C(O)C7OC7OC(C(=O)O)C(O)C(O)C7O)C(C)(CO)C6CCC5(C)C4(C)CCC23C)O1 (stereo not drawn)
2.12	CSCC(NC(=O)CCC(NCC1(O)OCC(O)C(O)C1O)C(=O)O)C(=O)O (stereo not drawn)
2.8	NC(Cc1c[nH]c2ccccc12)C(=O)O (stereo not drawn)
3.19	COc1cc(-c2[o+]c3cc(O)cc(O)c3cc2OC2OC(CO)C(O)C(O)C2O)cc(OC)c1O (stereo not drawn)
5.61	CC(C)C(NC(=O)Cc1c[nH]c2ccccc12)C(=O)O (stereo not drawn)
3.93	CC(=O)c1cccc2oc(=O)[nH]c12
1.57	O=C(O)CC(O)(CC(=O)O)C(=O)O
4	O=C(O)C1OC(OC2C(Oc3cc(O)c4c(=O)cc(-c5ccc(O)c(O)c5)oc4c3)OC(C(=O)O)C(O)C2O)C(O)C(O)C1O (stereo not drawn)
5.19	COc1ccc(-c2cc(=O)c3c(O)cc(OC4OC(COC5OC(C)C(O)C(O)C5O)C(O)C(O)C4O)cc3o2)cc1 (stereo not drawn)
4.96	COc1cc(C2Oc3c(O)cc(C4Oc5cc(O)cc(O)c5C(=O)C4O)cc3C2CO)ccc1O (stereo not drawn)

LC retention time [min]	Structure (SMILES)
2.99	O=C(O)C(Cc1ccccc1)NC(=O)C1CCCN1 (stereo not drawn)
7.01	CC1(C)CCC2(C(=O)O)CCC3(C)C(=CCC4C5(C)CC(O)C(OC6OC(CO)C(OC7OC(CO)C(O)C(O)C7O)C(O)C6O)C(C)(CO)C5CCC43C)C2C1 (stereo not drawn)
3.49	O=C(C=Cc1ccc(O)c(O)c1)OC1CC(OC(=O)C=Cc2ccc(O)c(O)c2)(C(=O)O)CC(O)C1O (stereo not drawn)
4.8	O=C1c2c(O)cc(O)cc2OC(c2ccc(O)cc2)C1O (stereo not drawn)
7.45	O=C1CC(c2ccccc2O)Oc2ccccc21 (stereo not drawn)
7.91	C=C1CCCC2(C)CC3(O)OC(=O)C(C)=C3CC12 (stereo not drawn)
4.73	COc1cc(C=CC=O)cc(OC)c1O
1.86	CC=CS(=O)CC(NC=C1OCC(O)C(O)C1O)C(=O)O (stereo not drawn)
3.11	COc1cc2ccc(=O)oc2cc1OC1OC(CO)C(O)C(O)C1O (stereo not drawn)
4.22	O=C(O)CC(=O)OCC1OC(Oc2c(-c3ccc(O)c(O)c3)oc3cc(O)cc(O)c3c2=O)C(O)C(O)C1O (stereo not drawn)
9.45	CC(C)=CCc1cc(C2COc3cc(O)c(CC=C(C)C)c(O)c3C2=O)ccc1O (stereo not drawn)
8.39	CCCCCC(O)C(O)CC=CCCCCCCCC(=O)O (stereo not drawn)
3.59	CC(=O)OC1CC(COC2OC(CO)C(O)C(O)C2O)CNC12OC1CC3C4CCC5CC(OC6OC(CO)C(OC7OC(CO)C(OC8OCC(O)C(O)C8O)C(O)C7OC7OC(CO)C(O)C(O)C7O)C(O)C6O)CCC5(C)C4CCC3(C)C1C2C (stereo not drawn)
6.45	CC1(C(=O)O)CCC2(C)CCC3(C)C(=CCC4C5(C)CCC(OC6OC(C(=O)O)C(O)C(O)C6OC6OC(C(=O)O)C(O)C(O)C6O)C(C)(C)C5CCC43C)C2C1 (stereo not drawn)
2.81	COc1cc(-c2[o+]c3cc(O)cc(OC4OC(CO)C(O)C(O)C4O)c3cc2OC2OC(CO)C(O)C(O)C2O)cc(OC)c1O (stereo not drawn)
5.79	CC1OC(OC2C(O)COC(OC3C(C)OC(OC4C(OC(=O)C56CCC(C)(C)CC5C5=CCC7C8(C)CCC(OC9OC(CO)C(O)C(O)C9O)C(C)(CO)C8CCC7(C)C5(C)CC6O)OCC(O)C4O)C(O)C3O)C2O)C(O)C(O)C1O (stereo not drawn)
5.05	CC(CCC1(O)OC2CC3C4CC=C5CC(OC6OC(CO)C(OC7OC(C)C(O)C(O)C7O)C(O)C6OC6OC(C)C(O)C(O)C6O)CCC5(C)C4CCC3(C)C2C1C)COC1OC(CO)C(O)C(O)C1O (stereo not drawn)
2.76	Cc1c(N)c(=O)n(-c2ccccc2)n1C
4.15	CC1OC(OC2C(O)C(CO)OC(Oc3c(-c4ccc(O)cc4)oc4cc(O)cc(O)c4c3=O)C2O)C(O)C(O)C1O (stereo not drawn)
2.7	COc1cc(C=CC(=O)NCCCCN)ccc1O
1.77	O=C(O)C1CCC(=O)N1CC1(O)OC(CO)C(O)C1O (stereo not drawn)
6.07	COc1ccc(-c2cc(=O)c3c(O)cc(O)cc3o2)cc1-c1c(O)cc(O)c2c(=O)cc(-c3ccc(O)cc3)oc12
1.87	CCC(C)C(N)C(=O)NC(CC(=O)O)C(=O)O (stereo not drawn)

The remaining lines, values behind:

Structure (SMILES)	LC retention time [min]
OCC1OC(Oc2cc3c(O)cc(O)cc3[o+]c2-c2cc(O)c(O)c(O)c2)C(O)C(O)C1O (stereo not drawn)	2.61
COc1ccc2c3c([nH]c2c1)C1CC2C(CC(O)C(OC)C2C(=O)O)CN1CC3 (stereo not drawn)	3.89
CCCCCCCCCCCCOS(=O)(=O)O	8.65
CC1(C)C=CC2(C)CCC3(C)C(=CCC4C5(C)CCC(O)C(C)(CO)C5CCC43C)C2C1 (stereo not drawn)	10.4
CCCCCC=CC=CC(CCCCCCCC(=O)O)OO (stereo not drawn)	8
CC(C)=CCc1c(O)cc(O)c2c1OC(c1ccc(O)cc1)CC2=O (stereo not drawn)	8.76
O=C(C=Cc1ccc(O)cc1)OCC1OC(Oc2c(-c3ccc(O)cc3)oc3cc(O)cc(O)c3c2=O)C(O)C(O)C1O (stereo not drawn)	5.21
CC(N)C(=O)NC(Cc1ccccc1)C(=O)O (stereo not drawn)	2.84
N#CC(OC1OC(COC2OC(CO)C(O)C(O)C2O)C(O)C(O)C1O)c1ccccc1 (stereo not drawn)	3.32
O=c1c(OC2OC(CO)C(O)C(O)C2O)c(-c2cc(O)c(O)c(O)c2)oc2cc(O)cc(O)c12 (stereo not drawn)	3.64
C=CCC(=NOS(=O)(=O)O)SC1OC(CO)C(O)C(O)C1O (stereo not drawn)	1.77
COc1c2c(cc3c1OCO3)CCN(C)C2	3.33
COc1cc2c(c(OC)c1OC)-c1c(cc(OC)c(OC)c1OC)CC(C)(O)C(C)C2 (stereo not drawn)	7.59
O=c1c(OC2OCC(O)C(O)C2O)c(-c2ccc(O)cc2)oc2cc(O)cc(O)c12 (stereo not drawn)	4.47
CC(C)=CCc1cc(-c2coc3cc(O)ccc3c2=O)ccc1O	7.24
O=C(C=Cc1ccc(O)c(O)c1)c1ccc(OC2OC(CO)C(O)C(O)C2O)c(O)c1O (stereo not drawn)	4.1

Structure (SMILES)	LC retention time [min]
C=CC1C(OC2OC(CO)C(O)C(O)C2O)OC=C2C(=O)N3CCC(=O)c4ccccc4NC(=O)C3CC21 (stereo not drawn)	3.77
COc1c(OC2OC(CO)C(O)C(O)C2O)cc2oc(-c3ccc(O)c(O)c3)c(O)c(=O)c2c1O (stereo not drawn)	4.58
O=C(O)c1cc(O)c2c(c1)C(C1c3cc(C(=O)O)cc(O)c3C(=O)c3c(OC4OC(CO)C(O)C(O)C4O)cccc31)c1cccc(OC3OC(CO)C(O)C(O)C3O)c1C2=O (stereo not drawn)	3.82
NCCCCNC(=O)C=Cc1ccccc1	3.7
CC(C)=CCc1c(O)ccc(-c2coc3cc(O)cc(O)c3c2=O)c1O	7.57
CC1OC(OCC2OC(Oc3c(-c4ccc(O)cc4)oc4cc(OC5OC(C)C(O)C(O)C5O)cc(O)c4c3=O)C(O)C(O)C2O)C(O)C(O)C1O (stereo not drawn)	3.4
NC(CCC(=O)NC(Cc1ccccc1)C(=O)O)C(=O)O (stereo not drawn)	3.04
CC(=O)OCC1OC(Oc2cc(O)c3c(=O)cc(-c4ccc(O)cc4)oc3c2)C(O)C(O)C1O (stereo not drawn)	5.14
CN1c2ccccc2C(=O)N2CCc3c([nH]c4ccccc34)C21 (stereo not drawn)	7.77
O=c1cc(-c2ccc(OC3OC(CO)C(O)C(O)C3O)c(O)c2)oc2cc(O)cc(O)c12 (stereo not drawn)	4.45
CC1(C(=O)O)CCC2(C)CCC3(C)C(=CCC4C5(C)CCC(OC6OC(C(=O)O)C(O)C(O)C6OC6OC(C(=O)O)C(O)C(O)C6O)C(C)(CO)C5CCC43C)C2C1 (stereo not drawn)	6.15
C=C1C2CC3(C1O)C1CC4C5(C)CCC(O)C4(C1N(CC)C5)C3CC2O (stereo not drawn)	3.05
COc1ccc(C2CC(=O)c3c(O)cc(OC4OC(CO)C(O)C(O)C4OC4OC(C)C(O)C(O)C4O)cc3O2)cc1O (stereo not drawn)	4.59
CC1OC(OC2C(Oc3cc(O)c4c(=O)cc(-c5ccc(O)cc5)oc4c3)OC(CO)C(O)C2O)C(O)C(O)C1O (stereo not drawn)	4.34
COCC=C1CN2C3CC45C(=Nc6c(OC)cc(OC)c(OC)c64)OCC3C1CC25 (stereo not drawn)	3.82
CC(C)=CCCC(C)(OC1OC(COC2OCC(O)C(O)C2O)C(O)C(O)C1O)C1CCC2(C)C1C(O)CC1C3(C)CCC(O)C(C)(C)C3C(O)CC12C (stereo not drawn)	6.11
